≈ marks a conversion by molar mass, not a printed value. Like-named read-outs stand apart in the source and are kept apart here.
Assays:
ETS = assay: Luciferase reporter assay, ETS, HeLa; format: cell-based, human
Description: (§1) Hela cells (or T98G cells) from ATCC were plated in white opaque 384-well plates at a density of 4300 cells/well in 30 µL of growth medium (DMEM with 10% FBS and 1% Pen/Strep). The next day, the medium was aspirated and replaced with DMEM containing 1% FBS. The cells were transfected with respective plasmids using X-tremeGENE HP DNA transfection reagent (Roche). After 24 h of transfection, the test agents were added to the transfected cells, followed 30 min later by an inducing agent: interleukin 6 (IL-6) for Stat3, TGF-β for Smad, m-wnt3a for Wnt and PMA for AP-1, NF-κB, E2F, Myc, ETS, Notch and Hedgehog. No inducer was added for FoXO and pTK. After 4 h or 6 h of induction, the cells were lysed via the addition of the One-Glo luciferase assay system (Promega; Madison, WI). The light output was detected in a GloMax®-Multi+ Detection System with Instinct® Software (Promega E 8051). This luciferase assay determines if the test agent is able to inhibit the activation of cancer-related signaling pathways. In the case of FoxO, the enhanced luciferase activity via the test agent was assessed.

δ opioid receptor = target: T1, δ opioid receptor (Homo sapiens, UniProt P41143); assay: Competitive radioligand binding assay, δ opioid; settings: for inhibition at 10 µM: [3H]-enkephalin (DPDPE), read-out: Percent displacement, Δ
T1 construct: host or cells: HEK293, stably transfected; membranes
T1 sequence (P41143 whole entry): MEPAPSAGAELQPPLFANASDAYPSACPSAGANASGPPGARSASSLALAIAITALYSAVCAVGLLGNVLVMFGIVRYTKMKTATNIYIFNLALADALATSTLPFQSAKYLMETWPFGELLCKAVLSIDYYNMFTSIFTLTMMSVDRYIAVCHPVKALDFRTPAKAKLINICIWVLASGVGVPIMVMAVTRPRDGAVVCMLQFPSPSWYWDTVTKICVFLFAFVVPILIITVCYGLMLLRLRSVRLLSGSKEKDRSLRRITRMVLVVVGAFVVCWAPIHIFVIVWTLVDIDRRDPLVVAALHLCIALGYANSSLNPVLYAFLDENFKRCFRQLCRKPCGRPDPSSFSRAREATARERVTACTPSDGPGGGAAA
Description: (§2) HEK293 cells stably transfected with δ, κ and μ opioid subtypes were a generous gift from Roth Laboratories (University of North Carolina at Chapel Hill, N.C., USA). CB and opioid cells were maintained as previously described.
(§3) Membranes were purified by first washing the cells with cold PBS and scraping the cells into cold 50 mM Tris-HCl, pH 7.4 buffer, which was centrifuged at 5200× g for 10 min at 4 °C; next, the supernatant was discarded, and the pellet was washed with more Tris-HCl buffer, homogenized via a Sonic Dismembrator (Fisher Scientific, Pittsburgh, PA, USA) and then centrifuged at 24,000× g for 40 min at 4 °C. Finally, the pellet was re-suspended in cold 50 mM Tris-HCl buffer, aliquoted into 2 mL vials and stored at −80 °C. The total membrane protein concentration was measured using a Pierce BCA Protein Assay Kit (Thermo Scientific, Rockford, IL, USA) as per the manufacturer’s protocol.
(§4) Cannabinoid and opioid competitive radioligand binding assays were performed as previously described. Saturation experiments were performed for all the receptors to determine the receptor concentration and radioligand dissociation constant (Kd) for the membrane. Percent displacements were evaluated for all the cannabinoid and opioid subtypes with a triplicate of a fixed concentration (10 µg/mL for extracts and fractions and 10 μM for purified compounds). […] Control/test compounds were dissolved in DMSO at 10 μg/mL for extracts and fractions and 10 μM for purified compounds. […] The percent displacement was calculated to represent the ability of the samples to displace the radioligand binding for a given cannabinoid or opioid receptor subtype.
(§5) The percent displacement was calculated as follows: 100−binding of compound−nonspecific binding/specific binding×100
(§6) The competitive binding assays were performed using 12 serial dilutions of each compound ranging from 0.002 to 300 μM (control compounds were serially diluted from 10 μM to 0.06 nM). The cannabinoid assays were incubated for 90 min at 37 °C with gentle agitation. The opioid assays were incubated for 60 min at room temperature. Bound radioligands were collected on GF/C (cannabinoid) or GF/B plates (opioid) and washed 10 times with ice-cold 50 mM Tris-HCl (pH 7.4)/0.1% BSA (cannabinoid) or ice-cold 50 mM Tris-HCl (pH 7.4) (opioid). Radiodetection was measured with 50 µL (cannabinoid) or 25 µL (opioid) of MicroScint^TM-20 on a TopCount NXT HTS Microplate Scintillation Counter (PerkinElmer, Waltham, MA, USA). The IC50 and Ki values were calculated via a non-linear curve fit model using GraphPad Prism 5.0 software (GraphPad Software, Inc., San Diego, CA, USA). Each compound was tested in triplicate unless stated otherwise.

Wnt = assay: Luciferase reporter assay, Wnt, HeLa; format: cell-based; settings: Homo sapiens; for IC50: HeLa cells, inducer m-wnt3a, dash: not inhibited by more than 40% at 50 µmol/L
Description: as §1

[1] = Solubility in aqueous assay buffer; settings: aqueous buffer of the radioligand binding assay
Hedgehog = assay: Luciferase reporter assay, Hedgehog, HeLa; format: cell-based, human
Description: as §1

FoxO = assay: Luciferase reporter assay, FoxO, HeLa; format: cell-based; settings: Homo sapiens, no inducer; for IC50: HeLa cells, dash: no activity detected, read-out: IC50, FoxO (None)
Description: as §1

Notch = assay: Luciferase reporter assay, Notch, HeLa; format: cell-based; settings: Homo sapiens; for IC50: HeLa cells, inducer PMA, dash: not inhibited by more than 40% at 50 µmol/L
Description: as §1

AP-1 = assay: Luciferase reporter assay, AP-1, HeLa; format: cell-based, human; settings: Homo sapiens; for IC50: read-out: IC50, Ap-1 (PMA)
Description: as §1

CB1 receptor = target: T2, CB1 receptor (Homo sapiens, UniProt P21554); assay: Competitive radioligand binding assay, CB1; settings: 10 μM; [3H]-CP55,940
T2 construct: expressed in transfected cells; host or cells: HEK293 (ATCC), stably transfected; membranes
T2 sequence (P21554 whole entry): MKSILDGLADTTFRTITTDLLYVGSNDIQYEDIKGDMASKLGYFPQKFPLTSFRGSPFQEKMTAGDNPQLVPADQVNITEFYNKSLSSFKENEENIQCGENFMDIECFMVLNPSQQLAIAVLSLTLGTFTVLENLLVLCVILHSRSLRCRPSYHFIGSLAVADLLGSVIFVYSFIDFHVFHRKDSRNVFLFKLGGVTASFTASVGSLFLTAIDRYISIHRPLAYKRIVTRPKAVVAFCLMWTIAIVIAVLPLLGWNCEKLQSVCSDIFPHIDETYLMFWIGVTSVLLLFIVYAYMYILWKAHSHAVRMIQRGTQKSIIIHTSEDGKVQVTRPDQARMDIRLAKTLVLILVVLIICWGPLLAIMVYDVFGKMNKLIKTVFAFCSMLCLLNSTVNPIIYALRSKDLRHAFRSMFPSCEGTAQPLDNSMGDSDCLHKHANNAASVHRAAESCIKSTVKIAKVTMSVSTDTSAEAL
Description: as §2, §3, §4, §5, §6

[2] = Cytotoxicity, Neutral Red, BT-549; format: cell-based; settings: human, BT-549 breast ductal carcinoma cells, Na = not active up to 50 µg/mL
Description: In vitro cytotoxic activity was determined against five human cancer cell lines—malignant melanoma (SK-MEL), epidermal carcinoma oral (KB), ductal carcinoma breast (BT-549), ovary carcinoma (SKOV-3) and cervical (HeLa) cancer cells—and two non-cancerous kidney cell lines (LLC-PK1 and Vero). All cell lines were obtained from the American Type Culture Collection (ATCC, Rockville, MD, USA). Each assay was performed in 96-well tissue culture-treated microplates. The cells were seeded at a density of 25,000 cells/well and incubated for 24 h. Samples at different concentrations were added, and the cells were incubated again for 48 h. At the end of the incubation, the cell viability was determined using Neutral Red dye according to a modification of the procedure used by Borenfreund et al.. IC50 values were determined from dose–response curves of the percent growth inhibition against test concentrations. Doxorubicin was used as a positive control, while DMSO was used as the negative (vehicle) control.

[3] = Homo sapiens, HeLa cells, inducer PMA, dash: not inhibited by more than 40% at 50 µmol/L
[4] = AP1, read-out: Additive effect (in % inhibition): percentage of luciferase induction, AP-1 (PMA)
[5] = HeLa cells, inducer PMA, dash: not inhibited by more than 40% at 50 µmol/L

Compound `C[C@H]1CC[C@H]2[C@H](C1)c1c(O)cc(/C=C/c3ccccc3O)cc1OC2(C)C` [compound 3, machaeriol C] has an inhibition at 10 µM (ETS; Homo sapiens, HeLa, 3 alone at 10 µM, compared to pTK as control, read-out: Additive effect (in % inhibition): percentage of luciferase induction, ETS (PMA)) of 66%, an IC50 (ETS; [3]) of 15 µM and an inhibition at 10 µM (δ opioid receptor) of 4.6%. The Ki (δ opioid receptor; Δ Ki ± SEM, NA = not active) was 17.1 ± 2.61 µM, the inhibition at 10 µM (Wnt; HeLa, 3 alone at 10 µM, compared to pTK as control, read-out: Additive effect (in % inhibition): percentage of luciferase induction, Wnt (m-wnt3a)) was 81% and the IC50 (Wnt) was 22 µM. The solubility [1] was under 33.3 µM, the inhibition at 10 µM (Hedgehog; Homo sapiens, HeLa, 3 alone at 10 µM, compared to pTK as control, read-out: Additive effect (in % inhibition): percentage of luciferase induction, Hedgehog (PMA)) was 66% and the IC50 (Hedgehog; [3]) was 10 µM. For the same compound, the inhibition at 10 µM (FoxO; HeLa, 3 alone at 10 µM, read-out: Additive effect (in % inhibition): percentage of luciferase induction, FoxO (None)) was 120%, the IC50 (FoxO) was over 50 µM and the inhibition at 10 µM (Notch; HeLa, 3 alone at 10 µM, compared to pTK as control, read-out: Additive effect (in % inhibition): percentage of luciferase induction, Notch- (PMA)) was 115%. The IC50 (Notch) was over 50 µM, the inhibition at 10 µM (AP-1; [4]) was 61% and the IC50 (AP-1) was 12 µM. For the same compound, the “Percent displacement, CB1” value (CB1 receptor) was 43.6% and the IC50 at 48 h [2] was over 50 µg/mL.
In the case of `C=C(C)[C@H]1CC[C@H](C)C[C@@H]1c1c(O)cc(/C=C/c2ccccc2O)cc1O` [compound 6, machaeridiol B], the “IC50, ETS (PMA)” value (ETS; [5]) is reported as “inactive”, the inhibition at 2 µM (ETS; Homo sapiens, HeLa, 6 alone at 2 µM, compared to pTK as control, read-out: Additive effect (in % inhibition): percentage of luciferase induction, ETS (PMA)) is reported as 107% and the IC50 (ETS; [3]) is reported as over 50 µM. The inhibition at 10 µM (δ opioid receptor) was 50.2%, the Ki (δ opioid receptor; NA = not active, read-out: Δ Ki ± SEM) was 6.54 ± 0.77 µM and the Ki (δ opioid receptor; read-out: Δ pKi (converted)) was 6.46 µM. The inhibition at 2 µM (Wnt; HeLa, 6 alone at 2 µM, compared to pTK as control, read-out: Additive effect (in % inhibition): percentage of luciferase induction, Wnt (m-wnt3a)) was 113%, the IC50 (Wnt) was 4.2 µM and the solubility [1] was under 33.3 µM. For the same compound, the “IC50, Hedgehog (PMA)” value (Hedgehog; [5]) was “inactive”, the inhibition at 2 µM (Hedgehog; Homo sapiens, HeLa, 6 alone at 2 µM, compared to pTK as control, read-out: Additive effect (in % inhibition): percentage of luciferase induction, Hedgehog (PMA)) was 92% and the IC50 (Hedgehog; [3]) was over 50 µM. The inhibition at 2 µM (FoxO; HeLa, 6 alone at 2 µM, read-out: Additive effect (in % inhibition): percentage of luciferase induction, FoxO (None)) was 105%, the IC50 (FoxO) was over 50 µM and the inhibition at 2 µM (Notch; HeLa, 6 alone at 2 µM, compared to pTK as control, read-out: Additive effect (in % inhibition): percentage of luciferase induction, Notch- (PMA)) was 103%. It also gave an IC50 (Notch) of 5.3 µM, an inhibition at 2 µM (AP-1; [4]) of 70% and an IC50 (AP-1) of 5.9 µM. For the same compound, the “Percent displacement, CB1” value (CB1 receptor) was 45.2% and the IC50 at 48 h [2] was 36 µg/mL (≈ 98.8 µM).
